“Also recorded” adds a separate entry of the source.
Assays:
CMT2D Gars^P278KY mice = test: In situ force and CMAP of triceps surae on sciatic nerve stimulation, CMT2D model; format: in vivo, mouse
Procedure: CMT2D Gars^P278KY mice (Jackson laboratories, stock 17540) were used (Spauling et al. 2016). All handling and use of animals complied with Danish Animal Welfare regulations (licence 2017-15-0201-01223). Animals were fed ad libitum, kept at 12 h light/dark condition at 21° C. and observed daily.
(§1) Mice were removed from their housing on the day of experiment and sedated with isoflurane (2-3%) dissolved in oxygen (supplied in a mask placed around the mouth and nose (Microvent 1, Hallowell EMC)) and placed on a heated mat. Sedation was ensured by testing the reflexes of the front limbs by tweezing them with a set of tweezers. Temperature was monitored by rectal probe. When fully sedated the Achilles tendon was blotted, tied by cotton string to a force transducer (Grass instruments) and cut distal to the cotton string, to allow recording of force from muscle of the lower limb. To record compound muscle action potentials (CMAP), two small needle electrodes were placed subcutaneously, one over the belly of the triceps surae muscle, and one at the distal part close to the tendon. To allow stimulation of the sciatic nerve, two stimulation needle electrodes were inserted at the base of the tail, one on each side of the sciatic nerve. Optimal placement was tested by applying short pulses via the stimulation electrodes, and assessing the resulting force and CMAP. When a stable response was obtained, electrodes were secured with tape, and the animal was allowed to rest for 10 minutes.
The single fibre measurements of EPP was performed in animals aged 8 to 15 weeks, whilst the in situ stimulation protocol part was performed in animals 37 weeks of age, from the same litter.
(§2) After optimal set-up and rest, the following stimulation paradigm was initiated: Every 30 seconds the sciatic nerve was stimulated at 8-12 Volt by pulses of 0.1 ms duration at 12 Hz with 10 pulses (12 Hz protocol). This was repeated 9 times after which a single stimulation at 120 Hz for 1 s was made. The 12 Hz protocol was then again repeated 9 times followed a stimulation at 30 Hz for 1 s. This cycle was repeated throughout the experiments providing recordings of force and CMAP at 120 Hz and 30 Hz every 10th minute interspaced by 12 Hz protocols every 30 second. When 3 consecutive measurements of 120 Hz were similar, NMD670 was administered I.V. (8 mg/kg dissolved in phosphate buffered saline at 2 mg/mL), while the stimulation paradigm continued. Animals were monitored for 6 hours after injection of NMD670. Force and CMAP were measured and digitalized by an AD converter (CED, UK,) and analysed in “Signal 6” (Cambridge Electronic Designs, UK). When analysing force traces, the peak amplitude of each twitch peak at 12 and 30 Hz was measured, and the baseline subtracted. The force at 30 and 120 Hz was also quantified as a force-time integral, or area under the curve (AUC). The CMAP recordings were quantified as the peak-to-peak levels for each CMAP in every train. The peak heights or CMAP levels were then expressed as ratios relative to the first CMAP peak in the train e.g. forth peak relative to 1st peak (T4/T1) and 10th peak relative to 1st peak (T10/T1).

WT mice = test: In situ force and CMAP of triceps surae on sciatic nerve stimulation, wild type; format: in vivo, mouse
Excerpt: as §1, §2

[1] = Tablet dissolution (USP2 paddles, pH 6.8); format: physicochemical; details: immediate release film-coated tablets; after a maximum of 60 minutes; USP2 paddles 75 RPM, 37° C., 900 ml pH 6.8
Procedure: Tablet dissolution was determined as follows. […] Dissolution Media pH 6.8 was prepared by dissolving 27.3g Na2HPO4·2H2O and 4.9 g Citric Acid in 1 L Milli-Q water. The pH was measured and adjusted if necessary to pH 6.8. 900 mL of dissolution media pH 6.8 was accurately transferred into each dissolution vessel. The apparatus was assembled, and the dissolution media was heated to 37° C.±0.5° C. The T=0 point was extracted from each vessel prior to dropping the tablets into the dissolution vessels. One tablet was gently dropped into each dissolution vessel, and rotation of the paddle was immediately started. Samples were taken that the sample extraction timepoints and analysed using the HPLC method.

MG patients = test: Phase 1 FIH study, single doses in MG patients; format: in vivo, human
Procedure: NMD670 has been tested in a Phase 1, FIH, single ascending and multiple ascending dose study in healthy volunteers. […] In addition, the Phase 1 FIH study also tested single doses of 400 mg and 1200 mg in 12 MG patients.

[2] = Gars^P278KY mice, after injection of NMD670
[3] = Gars^P278KY mice, after injection of NMD670, not fully normalized
[4] = Gars^P278KY, after 8 mg/kg i.v. (before 100)
[5] = Wild Type, after NMD670 (before 100)

C[C@H](Oc1ccc(Br)cc1-c1ccon1)C(=O)O [NMD670, (2S)-2-[4-bromo-2-(1,2-oxazol-3-yl)phenoxy]propanoic acid]
force, CMAP and relative force peaks (T4 or T10/T1) (CMT2D Gars^P278KY mice; Gars^P278KY mice, after 8 mg/kg NMD670 i.v., 12, 30, 120 Hz stimulation): less decrease in amplitudes; also recorded: improved; also recorded: increase | T4/T1 and T10/T1 ratios of twitch force (CMT2D Gars^P278KY mice; [2]): normalization | increase in absolute twitch force (CMT2D Gars^P278KY mice; [2]): 25% | increase of force during 30 Hz stimulation (CMT2D Gars^P278KY mice; [3]): 21% | increase of force during 120 Hz stimulation (CMT2D Gars^P278KY mice; [3]): 30% | Twitch force (CMT2D Gars^P278KY mice; Gars^P278KY, after 8 mg/kg NMD670 i.v. (before 6.06 ± 0.8)): 7.5 ± 1.1 g | Twitch force relative to BW (CMT2D Gars^P278KY mice; Gars^P278KY, after 8 mg/kg i.v. (before 0.42 ± 0.05)): 0.51 ± 0.05 | 12 Hz Ratios CMAP T10/T1 (CMT2D Gars^P278KY mice; Gars^P278KY, after 8 mg/kg i.v. (before 63.5 ± 4.91)): 76.1 ± 4.37 | 12 Hz Ratios CMAP T4/T1 (CMT2D Gars^P278KY mice; Gars^P278KY, after 8 mg/kg i.v. (before 75.5 ± 2.8)): 86.3 ± 2.44 | Force 12 Hz Ratios T10/T1 (CMT2D Gars^P278KY mice; Gars^P278KY, after 8 mg/kg i.v. (before 82.0 ± 6.0)): 93.8 ± 5.7% | EMG (CMAP) 30 Hz 5/1 (CMT2D Gars^P278KY mice; Gars^P278KY, after 8 mg/kg i.v. (before 82.4 ± 3.3)): 95.3 ± 2.4 | EMG (CMAP) 120 Hz 5/1 (CMT2D Gars^P278KY mice; Gars^P278KY, after 8 mg/kg i.v. (before 83.8 ± 13.9)): 102.0 ± 4.3 | Force 12 Hz Ratios T4/T1 (CMT2D Gars^P278KY mice; Gars^P278KY, after 8 mg/kg i.v. (before 88.2 ± 5.1)): 97.8 ± 5.0% | Force 30 Hz AUC (% of initial) (CMT2D Gars^P278KY mice; [4]): 124.1 ± 3.7 % of initial | Force 120 Hz AUC (% of initial) (CMT2D Gars^P278KY mice; [4]): 136.7 ± 29.9 % of initial | increase of ratio of the 5th and 1st CMAP peaks (WT mice; WT mice after injection of NMD670, 30 and 80 Hz stimulations as printed): not significantly different | Twitch force relative to BW (WT mice; Wild Type, after NMD670 (before 1.08 ± 0.01)): 1.06 ± 0.02 | Twitch force (WT mice; Wild Type, after NMD670 (before 21.6 ± 1.3)): 22.2 ± 2.3 g | Force 12 Hz Ratios T4/T1 (WT mice; Wild Type, after NMD670 (before 96.6 ± 1.3)): 97.7 ± 06% | Force 12 Hz Ratios T10/T1 (WT mice; Wild Type, after NMD670 (before 97.3 ± 0.6)): 99.2 ± 0.3% | Force 30 Hz AUC (% of initial) (WT mice; [5]): 102.9 ± 1.9 % of initial | Force 120 Hz AUC (% of initial) (WT mice; [5]): 100.7 ± 2.7 % of initial | 12 Hz Ratios CMAP T4/T1 (WT mice; Wild Type, after NMD670 (before 102.2 ± 0.9)): 103.1 ± 0.2 | 12 Hz Ratios CMAP T10/T1 (WT mice; Wild Type, after NMD670 (before 102.8 ± 0.1)): 102.8 ± 2.2 | EMG (CMAP) 30 Hz 5/1 (WT mice; Wild Type, after NMD670 (before 105.8 ± 3.1)): 119.0 ± 11.6 | EMG (CMAP) 120 Hz 5/1 (WT mice; Wild Type, after NMD670 (before 110.2 ± 6.5)): 123.5 ± 20.6 | NMD670 released from the tablets [1]: Not less than 80% | myotonia (MG patients; patients with MG, single doses of 400 mg and 1200 mg): not observed | symptoms of MG (MG patients; single dose of 400 mg): statistically significant and clinically relevant improvements of symptoms
